Laboratory results as given in patent US20250074888A1, “PYRIDAZINE DERIVATIVES AS MODULATORS OF NLRP3 INFLAMMASOME AND RELATED METHODS” (Neumora Therapeutics, Inc., priority 2021, published 2025).

How the values were obtained:
NLRP3 inflammasome = NLRP3 inflammasome (Homo sapiens, UniProt Q96P20); test: NLRP3 inflammasome activation in THP1 macrophages (LPS priming, nigericin), IL-1β AlphaLISA; assay type: cell-based; settings: PMA-differentiated THP1, LPS 20 ng/ml 3 hrs, compound 1 hr, Nigericin 6.7 uM 3 hrs, supernatant
Sequence of NLRP3 inflammasome (Q96P20 whole entry): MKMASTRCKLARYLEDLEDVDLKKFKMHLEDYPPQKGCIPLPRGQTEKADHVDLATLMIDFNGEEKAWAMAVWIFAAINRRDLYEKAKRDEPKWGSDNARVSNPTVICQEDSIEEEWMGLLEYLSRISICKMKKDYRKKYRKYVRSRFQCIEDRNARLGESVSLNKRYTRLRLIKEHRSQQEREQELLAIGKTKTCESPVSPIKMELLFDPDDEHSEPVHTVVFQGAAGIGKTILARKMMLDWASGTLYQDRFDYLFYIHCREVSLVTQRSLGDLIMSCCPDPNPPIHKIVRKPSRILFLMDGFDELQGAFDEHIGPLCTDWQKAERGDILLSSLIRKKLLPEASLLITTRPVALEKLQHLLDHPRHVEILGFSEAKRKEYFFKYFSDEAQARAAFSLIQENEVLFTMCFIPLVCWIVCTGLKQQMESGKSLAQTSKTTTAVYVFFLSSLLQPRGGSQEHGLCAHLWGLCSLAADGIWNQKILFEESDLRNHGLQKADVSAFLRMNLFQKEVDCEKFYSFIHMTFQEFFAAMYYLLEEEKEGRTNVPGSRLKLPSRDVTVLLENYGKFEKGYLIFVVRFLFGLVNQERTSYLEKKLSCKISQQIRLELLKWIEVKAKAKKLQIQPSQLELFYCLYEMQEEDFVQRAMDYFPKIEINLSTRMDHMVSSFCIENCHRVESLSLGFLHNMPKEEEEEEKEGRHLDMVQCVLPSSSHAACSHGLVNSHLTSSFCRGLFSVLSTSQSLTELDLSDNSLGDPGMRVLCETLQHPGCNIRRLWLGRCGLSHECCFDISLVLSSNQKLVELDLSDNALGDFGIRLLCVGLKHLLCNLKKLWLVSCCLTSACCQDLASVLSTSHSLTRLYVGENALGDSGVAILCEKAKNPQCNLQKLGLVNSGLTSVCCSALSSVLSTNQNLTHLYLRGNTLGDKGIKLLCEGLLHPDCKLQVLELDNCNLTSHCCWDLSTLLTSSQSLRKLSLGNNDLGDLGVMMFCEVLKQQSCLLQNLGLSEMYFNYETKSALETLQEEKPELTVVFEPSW

IL-6 = IL-6 release from LPS-primed, nigericin-treated THP1 macrophages, Hu IL-6 AlphaLISA; assay type: cell-based; settings: Homo sapiens, THP-1; PMA-differentiated THP1, LPS 20 ng/ml 3 hrs, compound 1 hr, Nigericin 6.7 uM 3 hrs, supernatant

Row | SMILES | IC50 (NLRP3 inflammasome) [nM] | IC50 (IL-6) [nM]
1 | COc1cc(-c2ccc(C(F)(F)F)cc2)nnc1N[C@@H]1CCCN(C)C1 [compound 102] | > 1000 | > 10000
2 | Cc1cc(N[C@@H]2CCCN(CC(F)(F)F)C2)nnc1-c1ccc(C(F)(F)F)cc1 [compound 114] | > 1000 | > 10000
3 | Cc1cc(-c2cccc(C(C)C)c2)nnc1N[C@@H]1CCCN(C)C1 [compound 79] | > 1000 | > 10000
4 | Cc1ccc(-c2cc(C(F)(F)F)c(N[C@@H]3CCCN(C)C3)nn2)cc1 [compound 91] | > 1000 | > 10000
5 | Cc1cc(-c2cccc(C(F)(F)F)c2)nnc1N[C@@H]1CCCN(C)C1 [compound 47] | > 1000 | > 10000
6 | Cc1cc(N[C@H]2CN(C)CC(F)(F)C2)nnc1-c1ccc(F)cc1 [compound 119] | > 1000 | > 10000
7 | CN1CCC[C@@H](Nc2nnc(-c3ccc(C(F)(F)F)cc3)cc2C(F)(F)F)C1 [compound 111] | > 1000 | > 10000
8 | Cc1cc(N[C@@H]2CCCN(C)C2)nnc1-c1ccc(C(F)(F)F)c(Cl)c1 [compound 39] | 500 to 1000 | > 10000
9 | Cc1ccccc1-c1nnc(N[C@@H]2CCCN(C)C2)cc1C [compound 87] | > 1000 | > 10000
10 | Cc1ccccc1-c1ccc(N[C@@H]2CCCN(C)C2)nn1 [compound 85] | > 1000 | > 10000
11 | CN1CCC[C@@H](Nc2nnc(-c3ccc(Cl)cc3)cc2C(F)(F)F)C1 [compound 196] | 500 to 1000 | 1000 to 5000
12 | Cc1cccc(C(F)F)c1-c1ccc(N[C@@H]2CCCN(C)C2)nn1 [compound 189] | > 1000 | > 10000
13 | Cc1cc(C(F)(F)F)ccc1-c1ccc(N[C@@H]2CCCN(C)C2)nn1 [compound 19] | 100 to 500 | 5000 to 10000
14 | CN1CCC[C@@H](Nc2ccc(-c3ccccc3)nn2)C1 [compound 84] | > 1000 | > 10000
15 | Cc1cc(-c2cccc(Cl)c2)nnc1N[C@@H]1CCCN(C)C1 [compound 77] | > 1000 | 5000 to 10000
16 | Cc1c(-c2ccc(N[C@@H]3CCCN(C)C3)nn2)ccc(C(F)(F)F)c1C [compound 161] | 100 to 500 | > 10000

The remaining lines, values ahead:

Row | IC50 (NLRP3 inflammasome) [nM] | IC50 (IL-6) [nM] | SMILES
17 | 100 to 500 | > 10000 | Cc1cc(N[C@@H]2CCCN(C)C2)nnc1-c1ccc(F)cc1F [compound 27]
18 | 10 to 50 | > 10000 | Cc1cc(N[C@@H]2C[C@@H](F)CN(C(C)C)C2)nnc1-c1ccc(Cl)cc1 [compound 152]
19 | ≤ 10 | > 10000 | Cc1cc(N[C@@H]2CCCN(C)C2)nnc1-c1ccc(C(F)(F)F)cc1C(F)F [compound 165]
20 | 10 to 50 | > 10000 | Cc1cc(N[C@@H]2CCCN(C)C2)nnc1-c1ccc(OC(F)(F)F)cc1 [compound 7]
21 | 100 to 500 | > 10000 | CN1CCC[C@@H](Nc2ccc(-c3ccc(C(F)(F)F)cc3Cl)nn2)C1 [compound 20]
22 | 10 to 50 | > 10000 | Cc1cc(-c2nnc(N[C@@H]3CCCN(C)C3)cc2C)ccc1Cl [compound 162]
23 | 10 to 50 | > 10000 | Cc1cc(N[C@@H]2CCCN(C)C2)nnc1-c1ccc(C(F)F)cc1 [compound 157]
24 | ≤ 10 | > 10000 | CN1CCC[C@@H](Nc2cc(C(F)(F)F)c(-c3ccc(Cl)cc3)nn2)C1 [compound 194]
25 | 100 to 500 | 5000 to 10000 | Cc1cc(N[C@@H]2CCCN(C)C2)nnc1-c1ccc(C2CCC2)cc1 [compound 28]
26 | 100 to 500 | > 10000 | Cc1cc(F)ccc1-c1ccc(N[C@@H]2CCCN(C)C2)nn1 [compound 134]
27 | 50 to 100 | > 10000 | Cc1cc(N[C@@H]2C[C@@H](F)CN(C(C)C)C2)nnc1-c1ccc(F)cc1 [compound 190]
28 | ≤ 10 | > 10000 | Cc1cc(N[C@@H]2CCN(C)C2)nnc1-c1ccc(C(F)(F)F)cc1 [compound 186]
29 | 100 to 500 | > 10000 | Cc1cc(O[C@@H]2CCCN(C)C2)nnc1-c1ccc(Cl)cc1 [compound 210]
